Assay results as given in PMC6770154, “A Multi-Biochemical and In Silico Study on Anti-Enzymatic Actions of Pyroglutamic Acid against PDE-5, ACE, and Urease Using Various Analytical Techniques: Unexplored Pharmacological Properties and Cytotoxicity Evaluation” (Biomolecules, 2019).

Columns and labels:
Jack bean urease (JBU) = Jack bean urease (JBU) (Canavalia ensiformis, UniProt P07374); assay: ESI-MS monitoring of urea depletion; format: biochemical
[1] = biological target: T1, phosphodiesterase-5A1 (PDE5A1) (Homo sapiens, UniProt O76074); assay: biochemical
T1 construct: gene PDE5A

[2] = biological target: human angiotensin-converting enzyme (ACE) (Homo sapiens, UniProt P12821); assay: spectrophotometric hippuric acid formation, % inhibition at […]; format: biochemical
human angiotensin-converting enzyme (ACE), sequence (P12821 30-1306): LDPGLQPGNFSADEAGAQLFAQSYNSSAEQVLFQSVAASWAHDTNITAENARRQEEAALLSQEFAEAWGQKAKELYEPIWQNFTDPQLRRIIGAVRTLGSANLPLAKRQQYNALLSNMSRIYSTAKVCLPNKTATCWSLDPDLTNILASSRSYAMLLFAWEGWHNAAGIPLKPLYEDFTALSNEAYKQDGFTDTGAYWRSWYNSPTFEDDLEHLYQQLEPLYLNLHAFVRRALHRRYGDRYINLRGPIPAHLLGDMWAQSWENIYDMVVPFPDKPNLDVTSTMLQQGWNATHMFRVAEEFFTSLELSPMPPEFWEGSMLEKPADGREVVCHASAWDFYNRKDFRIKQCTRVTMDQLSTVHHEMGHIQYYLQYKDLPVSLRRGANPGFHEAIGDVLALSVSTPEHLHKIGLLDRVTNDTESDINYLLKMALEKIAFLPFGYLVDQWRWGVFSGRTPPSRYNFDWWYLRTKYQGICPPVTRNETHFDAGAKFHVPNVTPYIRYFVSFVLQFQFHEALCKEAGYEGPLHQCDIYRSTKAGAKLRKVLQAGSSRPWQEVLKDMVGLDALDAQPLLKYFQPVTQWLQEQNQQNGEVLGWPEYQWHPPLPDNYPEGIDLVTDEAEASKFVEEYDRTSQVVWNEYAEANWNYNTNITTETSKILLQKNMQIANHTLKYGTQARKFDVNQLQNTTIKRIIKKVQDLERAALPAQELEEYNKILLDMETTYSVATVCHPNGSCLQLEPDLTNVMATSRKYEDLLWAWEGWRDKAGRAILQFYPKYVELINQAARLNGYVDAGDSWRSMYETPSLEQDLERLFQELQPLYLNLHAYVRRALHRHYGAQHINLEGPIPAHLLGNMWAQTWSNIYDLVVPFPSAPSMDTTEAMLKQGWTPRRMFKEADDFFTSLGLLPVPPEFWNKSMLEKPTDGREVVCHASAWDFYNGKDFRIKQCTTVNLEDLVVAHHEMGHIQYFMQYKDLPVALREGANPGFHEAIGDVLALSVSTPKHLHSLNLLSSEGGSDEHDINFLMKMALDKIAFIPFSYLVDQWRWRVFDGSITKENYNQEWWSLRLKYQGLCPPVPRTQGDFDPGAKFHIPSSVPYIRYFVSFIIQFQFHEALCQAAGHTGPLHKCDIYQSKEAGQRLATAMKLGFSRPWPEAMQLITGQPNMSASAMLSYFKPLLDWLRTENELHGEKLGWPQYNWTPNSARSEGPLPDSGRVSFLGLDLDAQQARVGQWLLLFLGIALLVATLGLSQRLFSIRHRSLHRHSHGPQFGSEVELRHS

Jack bean urease (JBU), sequence (P07374 whole entry, looked up): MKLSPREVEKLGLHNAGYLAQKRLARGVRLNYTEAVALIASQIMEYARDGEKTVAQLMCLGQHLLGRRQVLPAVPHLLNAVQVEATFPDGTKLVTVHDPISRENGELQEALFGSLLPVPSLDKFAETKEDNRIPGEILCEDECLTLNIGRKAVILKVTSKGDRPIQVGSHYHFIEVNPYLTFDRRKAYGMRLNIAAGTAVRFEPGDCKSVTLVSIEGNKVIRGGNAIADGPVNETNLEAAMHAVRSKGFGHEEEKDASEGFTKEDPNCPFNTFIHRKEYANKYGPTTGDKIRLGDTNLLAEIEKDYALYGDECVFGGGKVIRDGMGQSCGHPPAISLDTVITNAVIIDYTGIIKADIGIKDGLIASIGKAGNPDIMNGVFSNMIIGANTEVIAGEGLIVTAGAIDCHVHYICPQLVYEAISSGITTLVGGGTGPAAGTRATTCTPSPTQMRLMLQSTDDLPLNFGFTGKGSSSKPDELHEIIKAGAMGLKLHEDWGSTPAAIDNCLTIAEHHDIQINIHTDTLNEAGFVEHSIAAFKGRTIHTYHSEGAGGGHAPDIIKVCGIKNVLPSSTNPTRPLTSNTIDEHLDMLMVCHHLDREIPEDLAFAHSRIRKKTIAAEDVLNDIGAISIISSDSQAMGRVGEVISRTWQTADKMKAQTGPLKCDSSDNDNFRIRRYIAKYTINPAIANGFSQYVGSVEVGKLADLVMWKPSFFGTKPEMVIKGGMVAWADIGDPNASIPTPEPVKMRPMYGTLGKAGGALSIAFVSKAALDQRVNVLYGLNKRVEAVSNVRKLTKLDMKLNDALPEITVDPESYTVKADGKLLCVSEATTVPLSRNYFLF

O=C1CC[C@@H](C(=O)O)N1 [pGlu, pyroglutamic acid]
IC50 (Jack bean urease (JBU)): 1800 nM
IC50 [1]: 5.23 ± 1.33 µM
inhibition at 20 µg/mL [2]: 98.2 ± 1.12%

CC(=O)NO [AHA, acetohydroxamic acid, reference compound]
IC50 (Jack bean urease (JBU)): 3900 nM
